# Measurements as given in ChEMBL document CHEMBL2401728, “An unexpected Dimroth rearrangement leading to annelated thieno[3,2-d][1,2,3]triazolo[1,5-a]pyrimidines with potent antitumor activity” (Eur J Med Chem, 2013).
# Columns and labels:
# Format in all cases: functional
# SK-MEL-28 = test: Cytotoxicity against human SK-MEL-28 cells assessed as cellular growth at 0.1 uM after 48 hrs by SRB assay relative to control
# CCRF-CEM = test: Cytotoxicity against human CCRF-CEM cells after 48 hrs by SRB assay
# OVCAR-3 [1] = test: Cytotoxicity against human OVCAR3 cells after 48 hrs by SRB assay; conditions: OVCAR-3, 48 h
# [2] = Cytotoxicity against human EKVX cells assessed as cellular growth at 1 uM after 48 hrs by SRB assay relative to control
# NCI-H522 [3] = test: Cytotoxicity against human NCI-H522 cells assessed as cellular growth at 0.01 uM after 48 hrs by SRB assay relative to control
# U-251 = test: Cytotoxicity against human U251 cells after 48 hrs by SRB assay; conditions: U-251, 48 h
# A498 = test: Cytotoxicity against human A498 cells assessed as cellular growth at 0.1 uM after 48 hrs by SRB assay relative to control
# LOX IMVI = test: Cytotoxicity against human LOXIMVI cells after 48 hrs by SRB assay
# NCI-H226 = test: Cytotoxicity against human NCI-H226 cells assessed as cellular growth at 0.01 uM after 48 hrs by SRB assay relative to control
# K562 = test: Cytotoxicity against human K562 cells assessed as cellular growth at 1 uM after 48 hrs by SRB assay relative to control
# [4] = Cytotoxicity against human EKVX cells assessed as cellular growth at 0.1 uM after 48 hrs by SRB assay relative to control
# [5] = Cytotoxicity against human NCI-ADR-RES cells assessed as cellular growth at 0.1 uM after 48 hrs by SRB assay relative to control
# MDA-MB-231 [6] = test: Cytotoxicity against human MDA-MB-231 cells assessed as cellular growth at 0.01 uM after 48 hrs by SRB assay relative to control
# IGROV-1 [7] = test: Cytotoxicity against human IGROV1 cells assessed as cellular growth at 0.01 uM after 48 hrs by SRB assay relative to control
# MDA-MB-231 [8] = test: Cytotoxicity against human MDA-MB-231 cells after 48 hrs by SRB assay; conditions: MDA-MB-231, 48 h
# A549 = test: Cytotoxicity against human A549 cells assessed as cellular growth at 100 uM after 48 hrs by SRB assay relative to control
# ACHN = test: Cytotoxicity against human ACHN cells assessed as cellular growth at 0.1 uM after 48 hrs by SRB assay relative to control
# NCI-H522 [9] = test: Cytotoxicity against human NCI-H522 cells after 48 hrs by SRB assay; conditions: NCI-H522, 48 h
# UACC-257 = test: Cytotoxicity against human UACC257 cells assessed as cellular growth at 1 uM after 48 hrs by SRB assay relative to control
# M14 = test: Cytotoxicity against human M14 cells assessed as cellular growth at 0.01 uM after 48 hrs by SRB assay relative to control
# HCT-15 = test: Cytotoxicity against human HCT15 cells assessed as cellular growth at 1 uM after 48 hrs by SRB assay relative to control
# SK-OV-3 = test: Cytotoxicity against human SKOV3 cells assessed as cellular growth at 100 uM after 48 hrs by SRB assay relative to control
# 786-0 = test: Cytotoxicity against human 786-0 cells assessed as cellular growth at 100 uM after 48 hrs by SRB assay relative to control
# NCI-H322M = test: Cytotoxicity against human NCI-H322M cells assessed as cellular growth at 0.1 uM after 48 hrs by SRB assay relative to control
# IGROV-1 [10] = test: Cytotoxicity against human IGROV1 cells assessed as cellular growth at 1 uM after 48 hrs by SRB assay relative to control
# OVCAR-3 [11] = test: Cytotoxicity against human OVCAR3 cells assessed as cellular growth at 0.01 uM after 48 hrs by SRB assay relative to control
# Malme-3M = test: Cytotoxicity against human MALME-3M cells assessed as cellular growth at 100 uM after 48 hrs by SRB assay relative to control
# SNB-19 [12] = test: Cytotoxicity against human SNB19 cells assessed as cellular growth at 1 uM after 48 hrs by SRB assay relative to control
# OVCAR-3 [13] = test: Cytotoxicity against human OVCAR3 cells assessed as cellular growth at 1 uM after 48 hrs by SRB assay relative to control
# UO-31 = test: Cytotoxicity against human UO31 cells assessed as cellular growth at 0.01 uM after 48 hrs by SRB assay relative to control
# SW-620 = test: Cytotoxicity against human SW620 cells assessed as cellular growth at 10 uM after 48 hrs by SRB assay relative to control
# KM12 = test: Cytotoxicity against human KM12 cells after 48 hrs by SRB assay; conditions: KM12, 48 h
# [14] = Cytotoxicity against human NCI-ADR-RES cells assessed as cellular growth at 1 uM after 48 hrs by SRB assay relative to control
# SNB-19 [15] = test: Cytotoxicity against human SNB19 cells after 48 hrs by SRB assay; conditions: SNB-19, 48 h
# OVCAR-4 = test: Cytotoxicity against human OVCAR4 cells assessed as cellular growth at 0.01 uM after 48 hrs by SRB assay relative to control
# OVCAR-3 [16] = test: Cytotoxicity against human OVCAR3 cells assessed as cellular growth at 0.1 uM after 48 hrs by SRB assay relative to control
# [17] = read-out: LC50 (the source's name)
# [18] = read-out: pLC50 (the source's name) (converted)
smiles,measurement,setting,value
CN1CCN(CCCn2c3c(sc4ncccc43)c(=O)n3nnc(-c4ccccc4)c23)CC1,Activity,SK-MEL-28,95%
same,GI50,CCRF-CEM; read-out: GI50,1.67 µM
same,CC50,CCRF-CEM; [17],> 100 µM
same,TGI,CCRF-CEM; read-out: TGI,4.29 µM
same,GI50,CCRF-CEM; read-out: pGI50 (converted),1.66 µM
same,CC50,CCRF-CEM; [18],> 100 µM
same,TGI,CCRF-CEM; read-out: pTGI (converted),4.27 µM
same,GI50,OVCAR-3 [1]; read-out: GI50,1.81 µM
same,CC50,OVCAR-3 [1]; [17],6.68 µM
same,TGI,OVCAR-3 [1]; read-out: TGI,3.48 µM
same,GI50,OVCAR-3 [1]; read-out: pGI50 (converted),1.82 µM
same,CC50,OVCAR-3 [1]; [18],6.61 µM
same,TGI,OVCAR-3 [1]; read-out: pTGI (converted),3.47 µM
same,Activity,[2],95%
same,Activity,NCI-H522 [3],96%
same,GI50,U-251; read-out: GI50,1.82 µM
same,TGI,U-251; read-out: TGI,3.43 µM
same,GI50,U-251; read-out: pGI50 (converted),1.82 µM
same,TGI,U-251; read-out: pTGI (converted),3.47 µM
same,Activity,A498,81%
same,GI50,LOX IMVI; read-out: GI50,1.66 µM
same,TGI,LOX IMVI; read-out: TGI,3.36 µM
same,GI50,LOX IMVI; read-out: pGI50 (converted),1.66 µM
same,TGI,LOX IMVI; read-out: pTGI (converted),3.39 µM
same,Activity,NCI-H226,95%
same,Activity,K562,86%
same,Activity,[4],92%
same,Activity,[5],91%
same,Activity,MDA-MB-231 [6],100%
same,Activity,IGROV-1 [7],102%
same,GI50,MDA-MB-231 [8]; read-out: GI50,1.7 µM
same,TGI,MDA-MB-231 [8]; read-out: TGI,3.51 µM
same,GI50,MDA-MB-231 [8]; read-out: pGI50 (converted),1.7 µM
same,TGI,MDA-MB-231 [8]; read-out: pTGI (converted),3.55 µM
same,Activity,A549,-42%
same,Activity,ACHN,91%
same,GI50,NCI-H522 [9]; read-out: GI50,1.92 µM
same,TGI,NCI-H522 [9]; read-out: TGI,3.7 µM
same,GI50,NCI-H522 [9]; read-out: pGI50 (converted),1.91 µM
same,TGI,NCI-H522 [9]; read-out: pTGI (converted),3.72 µM
same,Activity,UACC-257,97%
same,Activity,M14,97%
same,Activity,HCT-15,89%
same,Activity,SK-OV-3,-95%
same,Activity,786-0,-58%
same,Activity,NCI-H322M,80%
same,Activity,IGROV-1 [10],94%
same,Activity,OVCAR-3 [11],100%
same,Activity,Malme-3M,-82%
same,Activity,SNB-19 [12],107%
same,Activity,OVCAR-3 [13],96%
same,Activity,UO-31,66%
same,Activity,SW-620,-63%
same,GI50,KM12; read-out: GI50,1.73 µM
same,CC50,KM12; [17],6.71 µM
same,TGI,KM12; read-out: TGI,3.41 µM
same,GI50,KM12; read-out: pGI50 (converted),1.74 µM
same,CC50,KM12; [18],6.76 µM
same,TGI,KM12; read-out: pTGI (converted),3.39 µM
same,Activity,[14],92%
same,GI50,SNB-19 [15]; read-out: GI50,2.5 µM
same,CC50,SNB-19 [15]; [17],> 100 µM
same,TGI,SNB-19 [15]; read-out: TGI,5.62 µM
same,GI50,SNB-19 [15]; read-out: pGI50 (converted),2.51 µM
same,CC50,SNB-19 [15]; [18],> 100 µM
same,TGI,SNB-19 [15]; read-out: pTGI (converted),5.62 µM
same,Activity,OVCAR-4,100%
same,Activity,OVCAR-3 [16],95%
O=C(CCCn1c2c(sc3ccccc32)c(=O)n2nnc(-c3ccccc3)c12)NCCc1c[nH]cn1,Activity,SK-MEL-28,121%
same,GI50,CCRF-CEM; read-out: GI50,0.0156 µM
same,CC50,CCRF-CEM; [17],5.29 µM
same,TGI,CCRF-CEM; read-out: TGI,0.29 µM
same,GI50,CCRF-CEM; read-out: pGI50 (converted),0.0155 µM
same,CC50,CCRF-CEM; [18],5.25 µM
same,TGI,CCRF-CEM; read-out: pTGI (converted),0.288 µM
same,GI50,OVCAR-3 [1]; read-out: GI50,1.66 µM
same,CC50,OVCAR-3 [1]; [17],5.66 µM
same,TGI,OVCAR-3 [1]; read-out: TGI,3.07 µM
same,GI50,OVCAR-3 [1]; read-out: pGI50 (converted),1.66 µM
same,CC50,OVCAR-3 [1]; [18],5.62 µM
same,TGI,OVCAR-3 [1]; read-out: pTGI (converted),3.09 µM
same,Activity,[2],79%
same,Activity,NCI-H522 [3],65%
same,GI50,U-251; read-out: GI50,0.165 µM
same,CC50,U-251; [17],4.3 µM
same,TGI,U-251; read-out: TGI,1.85 µM
same,GI50,U-251; read-out: pGI50 (converted),0.166 µM
same,CC50,U-251; [18],4.27 µM
same,TGI,U-251; read-out: pTGI (converted),1.86 µM
same,Activity,A498,72%
same,GI50,LOX IMVI; read-out: GI50,1.51 µM
same,CC50,LOX IMVI; [17],5.49 µM
same,TGI,LOX IMVI; read-out: TGI,2.88 µM
same,GI50,LOX IMVI; read-out: pGI50 (converted),1.51 µM
same,CC50,LOX IMVI; [18],5.5 µM
same,TGI,LOX IMVI; read-out: pTGI (converted),2.88 µM
same,Activity,NCI-H226,97%
same,Activity,K562,1%
same,Activity,[4],83%
same,Activity,[5],97%
same,Activity,MDA-MB-231 [6],115%
same,Activity,IGROV-1 [7],101%
same,GI50,MDA-MB-231 [8]; read-out: GI50,1.88 µM
same,LC50,MDA-MB-231 [8]; read-out: LC50,6.54 µM
same,TGI,MDA-MB-231 [8]; read-out: TGI,3.51 µM
same,GI50,MDA-MB-231 [8]; read-out: pGI50 (converted),1.86 µM
same,LC50,MDA-MB-231 [8]; read-out: pLC50 (converted),6.61 µM
same,TGI,MDA-MB-231 [8]; read-out: pTGI (converted),3.47 µM
same,Activity,A549,-2%
same,Activity,ACHN,100%
same,GI50,NCI-H522 [9]; read-out: GI50,0.0435 µM
same,CC50,NCI-H522 [9]; [17],> 100 µM
same,TGI,NCI-H522 [9]; read-out: TGI,3.11 µM
same,GI50,NCI-H522 [9]; read-out: pGI50 (converted),0.0437 µM
same,TGI,NCI-H522 [9]; read-out: pTGI (converted),3.09 µM
same,Activity,UACC-257,109%
same,Activity,M14,108%
same,Activity,HCT-15,29%
same,Activity,SK-OV-3,-100%
same,Activity,786-0,-68%
same,Activity,NCI-H322M,78%
same,Activity,IGROV-1 [10],41%
same,Activity,OVCAR-3 [11],133%
same,Activity,Malme-3M,-72%
same,Activity,SNB-19 [12],65%
same,Activity,OVCAR-3 [13],92%
same,Activity,UO-31,104%
same,Activity,SW-620,-84.52%
same,GI50,KM12; read-out: GI50,0.336 µM
same,CC50,KM12; [17],4.88 µM
same,TGI,KM12; read-out: TGI,2.01 µM
same,GI50,KM12; read-out: pGI50 (converted),0.339 µM
same,CC50,KM12; [18],4.9 µM
same,TGI,KM12; read-out: pTGI (converted),2 µM
same,Activity,[14],51%
same,GI50,SNB-19 [15]; read-out: GI50,5.12 µM
same,CC50,SNB-19 [15]; [17],54.3 µM
same,TGI,SNB-19 [15]; read-out: TGI,22.1 µM
same,GI50,SNB-19 [15]; read-out: pGI50 (converted),5.13 µM
same,CC50,SNB-19 [15]; [18],53.7 µM
same,TGI,SNB-19 [15]; read-out: pTGI (converted),21.9 µM
same,Activity,OVCAR-4,110%
same,Activity,OVCAR-3 [16],107%
